# Assay results taken from US20250026778A1 (TIUMBIO CO., LTD., priority 2021, published 2025).
# Like-named read-outs stand apart in the source and are kept apart here.
# Molecular target: T1, his-galectin-3 (Homo sapiens, UniProt P17931)
# T1 construct: purchased Abcam
# Assay: TR-FRET assay (in vitro galectin-3 binding inhibitory activity test)
# Conditions: compound at 20 μM, 60 nM his-galectin-3, 15 nM biotin-ASF, read-out: % Inhibitory activity (at 20 μM)
# Method in brief: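 Compound is premixed with his-galectin-3 (60 nM final), then biotin-ASF (15 nM), Tb anti-His antibody (2 nM) and streptavidin-d2 (20 nM) are added. After at least 3.5 hours at RT in HEPES/NaCl buffer with Tween 20 and BSA, TR-FRET is read at 615/665 nm. DMSO serves as the uninhibited control, ASF omission as background.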
# T1 sequence (P17931 whole entry): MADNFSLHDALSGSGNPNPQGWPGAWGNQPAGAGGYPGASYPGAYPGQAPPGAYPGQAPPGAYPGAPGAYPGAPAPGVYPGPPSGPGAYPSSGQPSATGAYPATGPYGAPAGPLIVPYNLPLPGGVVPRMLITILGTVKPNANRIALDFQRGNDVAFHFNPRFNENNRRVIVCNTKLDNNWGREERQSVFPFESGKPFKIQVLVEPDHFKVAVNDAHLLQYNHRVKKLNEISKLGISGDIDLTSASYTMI
inhibition at 20 µM (Table 2) [%],"inhibition at 20 µM (Table 3, found values) [%]",Compound
> 75,–,"Cc1cc(C(=O)N[C@@H]2CCO[C@]23O[C@H](CO)[C@H](O)[C@H](n2cc(-c4cc(F)c(F)c(F)c4)nn2)[C@H]3O)c2cc(Cl)ccc2n1 [Compound A229, 6-chloro-N-((4R,5S,7R,8R,9S,10R)-8,10-dihydroxy-7-(hydroxymethyl)-9-(4-(3,4,5-trifluorophenyl)-1H-1,2,3-triazol-1-yl)-1,6-dioxaspiro[4.5]decan-4-yl)-2-methylquinoline-4-carboxamide]"
50 to 75,66.5,"O=C(N[C@@H]1CCO[C@]12O[C@H](CO)[C@H](O)[C@H](n1cc(-c3cc(F)c(F)c(F)c3)nn1)[C@H]2O)c1cccc2occc12 [Compound A230, N-((4R,5S,7R,8R,9S,10R)-8,10-dihydroxy-7-(hydroxymethyl)-9-(4-(3,4,5-trifluorophenyl)-1H-1,2,3-triazol-1-yl)-1,6-dioxaspiro[4.5]decan-4-yl)benzofuran-4-carboxamide]"
> 75,–,"Cc1cc(C(=O)N[C@@H]2CCO[C@]23O[C@H](CO)[C@H](O)[C@H](n2cc(-c4cc(F)c(F)c(F)c4)nn2)[C@H]3O)c2cc(Br)ccc2n1 [Compound A231, 6-bromo-N-((4R,5S,7R,8R,9S,10R)-8,10-dihydroxy-7-(hydroxymethyl)-9-(4-(3,4,5-trifluorophenyl)-1H-1,2,3-triazol-1-yl)-1,6-dioxaspiro[4.5]decan-4-yl)-2-methylquinoline-4-carboxamide]"
> 75,–,"O=C(N[C@@H]1CCO[C@]12O[C@H](CO)[C@H](O)[C@H](n1cc(-c3cc(F)c(F)c(F)c3)nn1)[C@H]2O)c1c[nH]c2cccc(Cl)c12 [Compound A232, 4-chloro-N-((4R,5S,7R,8R,9S,10R)-8,10-dihydroxy-7-(hydroxymethyl)-9-(4-(3,4,5-trifluorophenyl)-1H-1,2,3-triazol-1-yl)-1,6-dioxaspiro[4.5]decan-4-yl)-1H-indole-3-carboxamide]"
50 to 75,–,"Cn1cc(C(=O)N[C@@H]2CCO[C@]23O[C@H](CO)[C@H](O)[C@H](n2cc(-c4cc(F)c(F)c(F)c4)nn2)[C@H]3O)c2cc(Cl)ccc21 [Compound A233, 5-chloro-N-((4R,5S,7R,8R,9S,10R)-8,10-dihydroxy-7-(hydroxymethyl)-9-(4-(3,4,5-trifluorophenyl)-1H-1,2,3-triazol-1-yl)-1,6-dioxaspiro[4.5]decan-4-yl)-1-methyl-1H-indole-3-carboxamide]"
> 75,–,"Cc1sc2ccccc2c1C(=O)N[C@@H]1CCO[C@]12O[C@H](CO)[C@H](O)[C@H](n1cc(-c3cc(F)c(F)c(F)c3)nn1)[C@H]2O [Compound A234, N-((4R,5S,7R,8R,9S,10R)-8,10-dihydroxy-7-(hydroxymethyl)-9-(4-(3,4,5-trifluorophenyl)-1H-1,2,3-triazol-1-yl)-1,6-dioxaspiro[4.5]decan-4-yl)-2-methylbenzo[b]thiophene-3-carboxamide]"
25 to 50,–,"OC[C@H]1O[C@@]2(CCCO2)[C@H](O)[C@@H](n2cc(-c3cc(F)c(F)c(F)c3)cn2)[C@H]1O [Compound A237, (5S,7R,8R,9S,10R)-7-(hydroxymethyl)-9-(4-(3,4,5-trifluorophenyl)-1H-pyrazol-1-yl)-1,6-dioxaspiro[4.5]decane-8,10-diol]"
> 75,–,"O=C(N[C@@H]1CCO[C@]12O[C@H](CO)[C@H](O)[C@H](n1cc(-c3cc(F)c(F)c(F)c3)cn1)[C@H]2O)c1cccc2ccc(Cl)cc12 [Compound A238, 7-chloro-N-((4R,5S,7R,8R,9S,10R)-8,10-dihydroxy-7-(hydroxymethyl)-9-(4-(3,4,5-trifluorophenyl)-1H-pyrazol-1-yl)-1,6-dioxaspiro[4.5]decan-4-yl)-1-naphthamide]"
> 75,–,"Cc1cc(C(=O)N[C@@H]2CCO[C@]23O[C@H](CO)[C@H](O)[C@H](n2cc(-c4cc(F)c(F)c(F)c4)cn2)[C@H]3O)c2cc(Cl)ccc2n1 [Compound A239, 6-chloro-N-((4R,5S,7R,8R,9S,10R)-8,10-dihydroxy-7-(hydroxymethyl)-9-(4-(3,4,5-trifluorophenyl)-1H-pyrazol-1-yl)-1,6-dioxaspiro[4.5]decan-4-yl)-2-methylquinoline-4-carboxamide]"
50 to 75,72.1,"Cc1ccc2ccccc2c1C(=O)N[C@@H]1CCO[C@]12O[C@H](CO)[C@H](O)[C@H](n1cc(-c3cc(F)c(F)c(F)c3)nn1)[C@H]2O [Compound A240, N-((4R,5S,7R,8R,9S,10R)-8,10-dihydroxy-7-(hydroxymethyl)-9-(4-(3,4,5-trifluorophenyl)-1H-1,2,3-triazol-1-yl)-1,6-dioxaspiro[4.5]decan-4-yl)-2-methyl-1-naphthamide]"
> 75,–,"COc1cc(C(=O)N[C@@H]2CCO[C@]23O[C@H](CO)[C@H](O)[C@H](n2cc(-c4cc(F)c(F)c(F)c4)nn2)[C@H]3O)c2ccccc2c1 [Compound A241, N-((4R,5S,7R,8R,9S,10R)-8,10-dihydroxy-7-(hydroxymethyl)-9-(4-(3,4,5-trifluorophenyl)-1H-1,2,3-triazol-1-yl)-1,6-dioxaspiro[4.5]decan-4-yl)-3-methoxy-1-naphthamide]"
50 to 75,–,"COc1ccc2ccccc2c1C(=O)N[C@@H]1CCO[C@]12O[C@H](CO)[C@H](O)[C@H](n1cc(-c3cc(F)c(F)c(F)c3)nn1)[C@H]2O [Compound A242, N-((4R,5S,7R,8R,9S,10R)-8,10-dihydroxy-7-(hydroxymethyl)-9-(4-(3,4,5-trifluorophenyl)-1H-1,2,3-triazol-1-yl)-1,6-dioxaspiro[4.5]decan-4-yl)-2-methoxy-1-naphthamide]"
> 75,–,"Cc1ccc(C(=O)N[C@@H]2CCO[C@]23O[C@H](CO)[C@H](O)[C@H](n2cc(-c4cc(F)c(F)c(F)c4)nn2)[C@H]3O)c2ccccc12 [Compound A243, N-((4R,5S,7R,8R,9S,10R)-8,10-dihydroxy-7-(hydroxymethyl)-9-(4-(3,4,5-trifluorophenyl)-1H-1,2,3-triazol-1-yl)-1,6-dioxaspiro[4.5]decan-4-yl)-4-methyl-1-naphthamide]"
50 to 75,–,"O=C(N[C@@H]1CCO[C@]12O[C@H](CO)[C@H](O)[C@H](n1cc(-c3cc(F)c(F)c(F)c3)nn1)[C@H]2O)c1cccc2cccnc12 [Compound A244, N-((4R,5S,7R,8R,9S,10R)-8,10-dihydroxy-7-(hydroxymethyl)-9-(4-(3,4,5-trifluorophenyl)-1H-1,2,3-triazol-1-yl)-1,6-dioxaspiro[4.5]decan-4-yl)quinoline-8-carboxamide]"
> 75,–,"Cc1cc(C(=O)N[C@@H]2CCO[C@]23O[C@H](CO)[C@H](O)[C@H](n2cc(-c4cc(F)c(F)c(F)c4)nn2)[C@H]3O)c2cccnc2c1 [Compound A245, N-((4R,5S,7R,8R,9S,10R)-8,10-dihydroxy-7-(hydroxymethyl)-9-(4-(3,4,5-trifluorophenyl)-1H-1,2,3-triazol-1-yl)-1,6-dioxaspiro[4.5]decan-4-yl)-7-methylquinoline-5-carboxamide]"
> 75,–,"O=C(N[C@@H]1CCO[C@]12O[C@H](CO)[C@H](O)[C@H](n1cc(-c3cc(F)c(F)c(F)c3)nn1)[C@H]2O)c1cccc2ccncc12 [Compound A246, N-((4R,5S,7R,8R,9S,10R)-8,10-dihydroxy-7-(hydroxymethyl)-9-(4-(3,4,5-trifluorophenyl)-1H-1,2,3-triazol-1-yl)-1,6-dioxaspiro[4.5]decan-4-yl)isoquinoline-8-carboxamide]"
> 75,–,"O=C(N[C@@H]1CCO[C@]12O[C@H](CO)[C@H](O)[C@H](n1cc(-c3cc(F)c(F)c(F)c3)nn1)[C@H]2O)c1cccc2cnccc12 [Compound A247, N-((4R,5S,7R,8R,9S,10R)-8,10-dihydroxy-7-(hydroxymethyl)-9-(4-(3,4,5-trifluorophenyl)-1H-1,2,3-triazol-1-yl)-1,6-dioxaspiro[4.5]decan-4-yl)isoquinoline-5-carboxamide]"
< 25,–,"O=C(N[C@@H]1CCO[C@]12O[C@H](CO)[C@H](O)[C@H](n1cc(-c3cc(F)c(F)c(F)c3)nn1)[C@H]2O)c1csc2cccc(Br)c12 [Compound A248, 4-bromo-N-((4R,5S,7R,8R,9S,10R)-8,10-dihydroxy-7-(hydroxymethyl)-9-(4-(3,4,5-trifluorophenyl)-1H-1,2,3-triazol-1-yl)-1,6-dioxaspiro[4.5]decan-4-yl)benzo[b]thiophene-3-carboxamide]"
> 75,89.9,"O=C(N[C@@H]1CCO[C@]12O[C@H](CO)[C@H](O)[C@H](n1cc(-c3cc(F)c(F)c(F)c3)nn1)[C@H]2O)c1csc2ccc(F)cc12 [Compound A249, N-((4R,5S,7R,8R,9S,10R)-8,10-dihydroxy-7-(hydroxymethyl)-9-(4-(3,4,5-trifluorophenyl)-1H-1,2,3-triazol-1-yl)-1,6-dioxaspiro[4.5]decan-4-yl)-5-fluorobenzo[b]thiophene-3-carboxamide]"
> 75,–,"O=C(N[C@@H]1CCO[C@]12O[C@H](CO)[C@H](O)[C@H](n1cc(-c3cc(F)c(F)c(F)c3)nn1)[C@H]2O)c1coc2cccc(Br)c12 [Compound A250, 4-bromo-N-((4R,5S,7R,8R,9S,10R)-8,10-dihydroxy-7-(hydroxymethyl)-9-(4-(3,4,5-trifluorophenyl)-1H-1,2,3-triazol-1-yl)-1,6-dioxaspiro[4.5]decan-4-yl)benzofuran-3-carboxamide]"
> 75,–,"O=C(N[C@@H]1CCO[C@]12O[C@H](CO)[C@H](O)[C@H](n1cc(-c3cc(F)c(F)c(F)c3)nn1)[C@H]2O)c1csc2ccc(Br)cc12 [Compound A251, 5-bromo-N-((4R,5S,7R,8R,9S,10R)-8,10-dihydroxy-7-(hydroxymethyl)-9-(4-(3,4,5-trifluorophenyl)-1H-1,2,3-triazol-1-yl)-1,6-dioxaspiro[4.5]decan-4-yl)benzo[b]thiophene-3-carboxamide]"
